Results on eleven compounds are retold here after patent US5763599A, “Nucleoside derivatives with photolabile protective groups” (Pfleiderer; Wolfgang, priority 1994, dated 1998).

A short description of the series: Irradiation experiments: photolytic cleavage of the 5' protective group with polychromatic light, followed by HPLC. The format is physicochemical. As to conditions: for Concentration Thymidine (released): from 0.2 mM CNPEOC-T; for Relative Quantity Thymidine (released): of 0.2 mM; for Concentration CNPEOC-T: start 0.2 mM; for Relative Quantity CNPEOC-T: 200 µM; for Photolytic cleavage of the 5' protective group in relation to rapidity and high yields: compared with V1 and V2. The protocol: The corresponding protected thymidine nucleosides were irradiated by means of an irradiation apparatus which was composed of a Hg very high pressure lamp (OSRAM HBO, 200 W), a focusing lens, a shutter with an electronic control device for setting the shutter times and a temperature-controlled cuvette holder. A heat filter (0.032 molar CuSO4 solution) between the lamp and sample was also installed. 0.2 mM solutions of the nucleosides in MeOH/H2 O 1:1 were irradiated at 20° to 30° C. with the entire lamp spectrum (polychromatic light with wavelengths of λ>289 nm).
The cleavage of the protective groups was followed quantitatively by HPLC. The HPLC unit comprised of the following devices: Merck-Hitachi L-6200 Intelligent Pump, Merck-Hitachi Intelligent Auto Sampler AS 4000, Merck-Hitachi Interface, Merck Lichrosorb column RP 18, 125×5 mm. The ultra-violet/VIS spectrophotometer was a Kontron UVIKON 730 LC. Detection took place at 260 nm. The integration of the chromatogram signals took place by means of Merck software: D-6000 HPLC Manager.
MeOH/H2 O mixtures were always used for chromatography. The following gradient was used (flow: 1 ml/min)
Calibration curves for thymidine and the protected nucleosides were compiled by injecting dilution series into the chromatograph.
Samples (loop volume: 20 μl) were taken from the irradiated solutions after specific time intervals. Each sample was injected twice into the chromatograph. The mean values of these dual determinations were used for further evaluation. The peak areas of the chromatograms were converted into the concentrations of protected nucleosides or of thymidine by means of the above-compiled calibration curves. The concentration values obtained in this manner were divided by the maximum achievable concentration of 0.2 mM (=concentration of the protected nucleosides at the start of irradiation) and plotted against the irradiation time as a "relative quantity" in percent.
Linear regression yielded: y=4.96777·10^-4 +3.85757 10^-7 ·x with x=peak area and y=thymidine concentration; r=0.9999
Linear regression yielded: y=9.2999·10^-4 +3.22516 10^-7 ·x with x=peak area and y=CNPEOC-T concentration; r=0.9998.
With regard to several other derivatives according to the invention and to the two comparative compounds V1 (5'-O-(2-nitrobenzyloxycarbonyl)thymidine) and V2 (5'-O-(2.4dinitrobenzyloxycarbonyl)thymidine), the following table summarizes their results obtained according to the above method and evaluated in relation to half-life and yield percentage of deprotected nucleoside derivative, in relation to the maximum concentration achievable): […]

Setting [1] is: 0.2 mM in MeOH/H2O 1:1, 20° to 30° C., λ>289 nm.

SMILES strings stand for the structures.

For `Cc1cn([C@H]2C[C@H](O)[C@@H](COC(=O)OCCc3c(Cl)cccc3[N+](=O)[O-])O2)c(=O)[nH]c1=O` [Compound 4, 5'-O-(2-(2-chloro-6-nitrophenyl)ethoxycarbonyl)thymidine], the “Yield of deprotected nucleoside, in relation to maximum concentration achievable” value (“Yield of deprotected nucleoside” for short) under setting [1] was 86 % Cmax. Further, the “Concentration Thymidine (released)” value reads like this: (irradiation time 1 min) 32.7 µM; (irradiation time 2 min) 85.8 µM; (irradiation time 3 min) 88.8 µM; (irradiation time 5 min) 127.8 µM; (irradiation time 15 min) 167.3 µM; (irradiation time 30 min) 169.3 µM. For the same compound, the “Concentration Thymidine (released)” value was determined as 171.1 µM (irradiation time 60 min) and 157.7 µM (irradiation time 120 min). Further, the “Relative Quantity Thymidine (released)” value by setting is: (irradiation time 1 min) 16.3%; (irradiation time 2 min) 42.9%; (irradiation time 3 min) 44.4%; (irradiation time 5 min) 63.9%; (irradiation time 15 min) 83.7%; (irradiation time 30 min) 84.6%. The “Relative Quantity Thymidine (released)” value reads like this: (irradiation time 60 min) 85.5%; (irradiation time 120 min) 78.9%. The “Concentration CNPEOC-T” value was found to be 148.9 µM (irradiation time 1 min); 82.6 µM (irradiation time 2 min); 81.9 µM (irradiation time 3 min); 28.1 µM (irradiation time 5 min); 8.8 µM (irradiation time 15 min); 0 µM (irradiation time 30 min). For the same compound, the “Concentration CNPEOC-T” value runs as follows: (irradiation time 60 min) 0 µM; (irradiation time 120 min) 0 µM. The “t0.5 (half-life of photolytic deprotection)” value (meoh/h2o 1:1, 200 µM) turned out to be 1.71 min. Further, the “Relative Quantity CNPEOC-T” value is, setting by setting: (meoh/h2o 1:1, 1 min) 74.5%; (meoh/h2o 1:1, 2 min) 41.3%; (meoh/h2o 1:1, 0.05 h) 40.9%; (meoh/h2o 1:1, 5 min) 14.0%; (meoh/h2o 1:1, 0.25 h) 4.4%; (meoh/h2o 1:1, 0.5 h) 0%. Also, the “Relative Quantity CNPEOC-T” value is 0% (meoh/h2o 1:1, 1 h) and 0% (meoh/h2o 1:1, 2 h).

Take `Cc1cn([C@H]2C[C@H](O)[C@@H](COC(=O)OCC(Cl)c3ccccc3[N+](=O)[O-])O2)c(=O)[nH]c1=O` (some centres unmarked) [Compound 11, 5'-O-(2-chloro-2-(2-nitrophenyl)ethoxycarbonyl)thymidine]: the “Photolytic cleavage of the 5' protective group in relation to rapidity and high yields” value is recorded as “clearly superior”. Under setting [1], the “Yield of deprotected nucleoside” value stood at 97 % Cmax. In addition, for the setting “meoh/h2o 1:1, 200 µM”, the “t0.5 (half-life of photolytic deprotection)” value is 1.46 min.

With `Cc1cn([C@H]2C[C@H](O)[C@@H](COC(=O)OCCc3ccccc3[N+](=O)[O-])O2)c(=O)[nH]c1=O` [Compound 1, 5'-O-(2-(2-nitrophenyl)ethoxycarbonyl)thymidine], the “Yield of deprotected nucleoside” value under setting [1] is given as 79 % Cmax. The “t0.5 (half-life of photolytic deprotection)” value (meoh/h2o 1:1, 200 µM) is listed as 2.6 min.

`COc1cc(CCOC(=O)OC[C@H]2O[C@@H](n3cc(C)c(=O)[nH]c3=O)C[C@@H]2O)c([N+](=O)[O-])cc1OC` [Compound 9, 5'-O-(2-(4,5-dimethoxy-2-nitrophenyl)ethoxycarbonyl)thymidine]: under setting [1], the “Yield of deprotected nucleoside” value came to 77 % Cmax. Moreover, the “t0.5 (half-life of photolytic deprotection)” value (meoh/h2o 1:1, 200 µM) was 7.2 min.

With `Cc1cn([C@H]2C[C@H](O)[C@@H](COC(=O)OCCc3c([N+](=O)[O-])cccc3[N+](=O)[O-])O2)c(=O)[nH]c1=O` [Compound 2, 5'-O-(2-(2,6-dinitrophenyl)ethoxycarbonyl)thymidine], under setting [1], the “Yield of deprotected nucleoside” value worked out at 92 % Cmax and the “t0.5 (half-life of photolytic deprotection)” value is listed as 1.37 min.

On to `Cc1cn([C@H]2C[C@H](O)[C@@H](COC(=O)OCCc3c(Cl)cc(Cl)cc3[N+](=O)[O-])O2)c(=O)[nH]c1=O` [Compound 8, 5'-O-(2-(2,4-dichloro-6-nitrophenyl)ethoxycarbonyl)thymidine], for which the “Yield of deprotected nucleoside” value under setting [1] came to 77 % Cmax. For the same compound, the “t0.5 (half-life of photolytic deprotection)” value (meoh/h2o 1:1, 200 µM) stood at 1.68 min.

Regarding `Cc1cn([C@H]2C[C@H](O)[C@@H](COC(=O)OCc3ccccc3[N+](=O)[O-])O2)c(=O)[nH]c1=O` [Compound V1, 5'-O-(2-nitrobenzyloxycarbonyl)thymidine, reference compound], the “Yield of deprotected nucleoside” value under setting [1] is given as 55 % Cmax. Besides, the “t0.5 (half-life of photolytic deprotection)” value (meoh/h2o 1:1, 200 µM) turned out to be 2.5 min.

On to `Cc1cn([C@H]2C[C@H](O)[C@@H](COC(=O)OCCc3ccc(Cl)cc3[N+](=O)[O-])O2)c(=O)[nH]c1=O` [Compound 6, 5'-O-(2-(4-chloro-2-nitrophenyl)ethoxycarbonyl)thymidine], for which the “Yield of deprotected nucleoside” value under setting [1] is reported as 70 % Cmax. The “t0.5 (half-life of photolytic deprotection)” value (meoh/h2o 1:1, 200 µM) was 2.3 min.

As for `Cc1cn([C@H]2C[C@H](O)[C@@H](COC(=O)OCCc3c(Br)cccc3[N+](=O)[O-])O2)c(=O)[nH]c1=O` [Compound 5, 5'-O-(2-(2-bromo-6-nitrophenyl)ethoxycarbonyl)thymidine], the “Yield of deprotected nucleoside” value under setting [1] is listed as 89 % Cmax. In addition, for the setting “meoh/h2o 1:1, 200 µM”, the “t0.5 (half-life of photolytic deprotection)” value was 1.71 min.

With `Cc1cn([C@H]2C[C@H](O)[C@@H](COC(=O)OCc3ccc([N+](=O)[O-])cc3[N+](=O)[O-])O2)c(=O)[nH]c1=O` [Compound V2, 5'-O-(2.4dinitrobenzyloxycarbonyl)thymidine, reference compound], under setting [1], the “Yield of deprotected nucleoside” value worked out at 38 % Cmax and the “t0.5 (half-life of photolytic deprotection)” value worked out at 3.3 min.

For the compound `Cc1cn([C@H]2C[C@H](O)[C@@H](COC(=O)OCC(C)c3ccccc3[N+](=O)[O-])O2)c(=O)[nH]c1=O` (some centres unmarked) [Compound 10, 5'-O-(2-(2-nitrophenyl)propoxycarbonyl)thymidine], the “Photolytic cleavage of the 5' protective group in relation to rapidity and high yields” value was “clearly superior”. The “Yield of deprotected nucleoside” value under setting [1] worked out at 89 % Cmax. For the same compound, for the setting “meoh/h2o 1:1, 200 µM”, the “t0.5 (half-life of photolytic deprotection)” value came out at 0.7 min.
